Measured values reported in patent US20130310379A1, “MODULATORS OF METHYL MODIFYING ENZYMES, COMPOSITIONS AND USES THEREOF” (CONSTELLATION PHARMACEUTICALS, priority 2010, published 2013).

Target: EZH2 (Homo sapiens, UniProt Q15910)
Experiment: EZH2 assay: rPRC2 with biotinylated oligonucleosome substrates and 3H SAM, FlashPlate scintillation counting, IC50
Type: biochemical
Conditions: not given
Procedure, shortened: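 rPRC2 (2 nM EZH2) pre-incubated 20 min with compound (80 to 0.16 uM, ten 2-fold steps), then 60 min reaction with 0.2 uM 3H SAM, 0.2 uM biotinylated oligonucleosomes, 3.6 uM H3K27me3 peptide in Tris pH 8.5. SAH/EDTA quench; 4-parameter IC50 fit.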

Sequence of EZH2 (Q15910 whole entry): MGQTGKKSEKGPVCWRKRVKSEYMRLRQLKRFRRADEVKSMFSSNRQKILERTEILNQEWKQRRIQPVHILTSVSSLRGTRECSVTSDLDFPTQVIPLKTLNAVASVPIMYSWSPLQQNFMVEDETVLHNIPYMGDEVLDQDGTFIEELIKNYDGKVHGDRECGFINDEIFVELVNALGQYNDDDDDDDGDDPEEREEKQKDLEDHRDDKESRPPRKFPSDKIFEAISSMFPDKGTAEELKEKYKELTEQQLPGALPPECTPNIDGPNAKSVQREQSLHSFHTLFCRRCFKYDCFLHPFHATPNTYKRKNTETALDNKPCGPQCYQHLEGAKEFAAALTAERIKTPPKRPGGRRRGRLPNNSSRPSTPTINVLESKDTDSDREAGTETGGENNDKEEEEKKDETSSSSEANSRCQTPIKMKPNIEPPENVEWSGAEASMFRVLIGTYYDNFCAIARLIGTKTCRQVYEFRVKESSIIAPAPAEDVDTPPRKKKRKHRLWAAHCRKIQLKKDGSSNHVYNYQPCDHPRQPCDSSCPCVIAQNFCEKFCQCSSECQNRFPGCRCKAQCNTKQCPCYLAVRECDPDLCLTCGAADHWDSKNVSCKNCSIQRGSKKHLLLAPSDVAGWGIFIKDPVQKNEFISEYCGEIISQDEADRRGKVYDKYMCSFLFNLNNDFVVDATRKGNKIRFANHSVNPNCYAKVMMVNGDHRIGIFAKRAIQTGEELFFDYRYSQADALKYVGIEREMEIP
Sequence of EZH2 (O75530 whole entry partner): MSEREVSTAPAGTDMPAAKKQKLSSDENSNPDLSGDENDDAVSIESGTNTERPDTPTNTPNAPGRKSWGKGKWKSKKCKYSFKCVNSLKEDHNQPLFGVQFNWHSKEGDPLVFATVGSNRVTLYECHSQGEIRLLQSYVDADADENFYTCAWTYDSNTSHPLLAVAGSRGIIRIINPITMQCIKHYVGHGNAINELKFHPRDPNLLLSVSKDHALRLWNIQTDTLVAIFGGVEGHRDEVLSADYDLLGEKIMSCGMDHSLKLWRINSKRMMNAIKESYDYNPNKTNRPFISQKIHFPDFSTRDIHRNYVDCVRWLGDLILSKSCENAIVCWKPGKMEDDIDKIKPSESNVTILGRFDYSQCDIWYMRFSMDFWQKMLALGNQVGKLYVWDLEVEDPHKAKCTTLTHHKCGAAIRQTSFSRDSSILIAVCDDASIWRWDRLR
Sequence of EZH2 (Q15022 whole entry partner): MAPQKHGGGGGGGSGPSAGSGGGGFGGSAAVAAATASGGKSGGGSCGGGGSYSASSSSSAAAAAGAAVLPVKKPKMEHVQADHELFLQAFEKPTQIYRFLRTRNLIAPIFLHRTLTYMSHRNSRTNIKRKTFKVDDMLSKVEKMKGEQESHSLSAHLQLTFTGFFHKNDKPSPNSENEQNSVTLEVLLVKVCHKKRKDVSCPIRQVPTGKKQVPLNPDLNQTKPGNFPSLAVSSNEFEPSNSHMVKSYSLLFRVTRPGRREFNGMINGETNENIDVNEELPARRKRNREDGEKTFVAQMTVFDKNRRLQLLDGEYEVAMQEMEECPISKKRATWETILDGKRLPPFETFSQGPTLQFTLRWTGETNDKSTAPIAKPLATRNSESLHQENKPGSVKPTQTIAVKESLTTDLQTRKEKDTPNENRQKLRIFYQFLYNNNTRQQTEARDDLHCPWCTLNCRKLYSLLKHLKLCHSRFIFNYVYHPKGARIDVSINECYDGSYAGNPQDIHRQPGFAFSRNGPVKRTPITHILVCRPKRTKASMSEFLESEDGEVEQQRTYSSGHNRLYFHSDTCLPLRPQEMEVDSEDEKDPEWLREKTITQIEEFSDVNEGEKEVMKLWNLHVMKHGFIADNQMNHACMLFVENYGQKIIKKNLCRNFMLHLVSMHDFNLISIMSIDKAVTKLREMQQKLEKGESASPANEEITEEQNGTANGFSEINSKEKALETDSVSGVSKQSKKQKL

Row | Structure (SMILES) | IC50 [µM]
1 | CC1(C)CC(NC(=O)c2ccc(Oc3ccccc3C#N)c(Cl)c2)CC(C)(C)N1[O] [Compound I-402] | > 80

Same assay, conditions: rPRC2, biotinylated oligonucleosome substrates, 3H SAM; read-out: EZH2 IC50

Row | Structure (SMILES) | IC50 [µM]
2 | CC1(C)CC(NC(=O)c2ccc(N3CC(c4ccccc4)CC3=O)c(Cl)c2)CC(C)(C)N1 (stereo not drawn) [Compound I-396] | > 80
3 | N#Cc1ccccc1Oc1ccc(C(=O)NC2CCNC(=O)C2)cc1Cl (stereo not drawn) [Compound I-403] | > 80
4 | CC1(C)CNCCC1NC(=O)c1ccc(Oc2ccccc2C#N)c(Cl)c1 (stereo not drawn) [Compound I-406] | > 80
5 | N#Cc1c(Br)cccc1Oc1ccc(C(=O)NC2CCNCC2)cc1Cl [Compound I-407] | > 80
6 | N#Cc1ccccc1Oc1ccc(C(=O)N[C@H]2C[C@H]3CC[C@@H](C2)N3)cc1Cl [Compound I-408] | > 80
7 | CC1(C)CC(NC(=O)c2ccc(Oc3ccccc3C#N)c(Cl)c2)CC(c2ccccc2)N1 (stereo not drawn) [Compound I-409] | 20 to 80
8 | CC1(C)CC(NC(=O)c2ccc(OC[C@@H]3CCCN3)c(Cl)c2)CC(C)(C)N1 [Compound I-410] | > 80
9 | CC1(C)CC(NC(=O)c2ccc3c(c2)Cc2ccccc2O3)CC(C)(C)N1 [Compound I-412] | > 80
10 | CC1(C)CC(NC(=O)c2ccc(N3CCOC(c4ccccc4)C3)c(Cl)c2)CC(C)(C)N1 (stereo not drawn) [Compound I-416] | > 80
11 | CC1(C)CC(NC(=O)c2ccc(Oc3ccccc3C#N)c(Cl)c2)CC(C(=O)O)N1 (stereo not drawn) [Compound I-419] | > 80
12 | CC1(C)CC(NC(=O)c2ccc(Oc3ccccc3C#N)c(Cl)c2)CC(C)(C)N1CC(=O)O [Compound I-424] | > 80
13 | CC(c1ccccc1)c1ccc(C(=O)NC2CC(C)(C)NC(C)(C)C2)cc1 (stereo not drawn) [Compound I-426] | > 80
14 | CC1(C)CC(NC(=O)c2cnc(Oc3cccc(-c4cn[nH]c4)c3C#N)c(Cl)c2)CC(C)(C)N1 [Compound I-435] | < 5
15 | CC1(C)CC(NC(=O)c2ccc(C3=NCC(=O)Nc4ccccc43)cc2)CC(C)(C)N1 [Compound I-436] | > 80
16 | CC1(C)CC(NC(=O)c2ccc(C3(c4ccccc4)CC3)cc2)CC(C)(C)N1 [Compound I-437] | > 80
17 | CC1(C)CC(NC(=O)N2CCN(Cc3ccccc3C#N)CC2)CC(C)(C)N1 [Compound I-438] | > 80
18 | CC1(C)CC(NC(=O)c2ccc(Oc3cccc(-c4cn[nH]c4)c3C#N)c(C3CC3)c2)CC(C)(C)N1 [Compound I-439] | < 5
19 | CC1(C)CC(NC(=O)c2ccc(N3CCOc4ccccc43)cc2)CC(C)(C)N1 [Compound I-440] | > 80
20 | CC1(C)CC(NC(=O)N2CCC(Oc3ccccc3C#N)CC2)CC(C)(C)N1 [Compound I-442] | > 80
21 | CC1(C)CC(NC(=O)N2CCN(Cc3ccccc3C#N)C(=O)C2)CC(C)(C)N1 [Compound I-448] | > 80
22 | CC1(C)CC(C(=O)Nc2ccc(Oc3cccc(-c4cn[nH]c4)c3C#N)c(Cl)c2)CC(C)(C)N1 [Compound I-449] | 5 to 20

Row | Structure (SMILES) | IC50 [µM]
23 | CC1(C)CC(NC(=O)c2ccc(OCC3CCCCN3)c(Cl)c2)CC(C)(C)N1 (stereo not drawn) [Compound I-450] | > 80
24 | CC1(C)CC(NC(=O)c2ccc(Oc3ccccc3C#N)c(Cl)c2)CC(C)(C)N1CC(N)=O [Compound I-452] | > 80
25 | CC(c1ccccc1C#N)N1CCN(C(=O)NC2CC(C)(C)NC(C)(C)C2)CC1 (stereo not drawn) [Compound I-454] | > 80
26 | CC1(C)CC(C#N)(NC(=O)c2ccc(Oc3cccc(-c4ccnnc4)c3C#N)c(Cl)c2)CC(C)(C)N1 [Compound I-456] | < 5
27 | N#Cc1ccccc1Oc1ccc(C(=O)NC2CCN(CCN)CC2)cc1Cl [Compound I-460] | > 80
28 | CN1CCC(NC(=O)c2ccc(Oc3cccc(-c4ccnnc4)c3C#N)c(Cl)c2)CC1 [Compound I-465] | > 80
29 | CC1(C)CC(NC(=O)N2CCC(Oc3ccccc3)C2)CC(C)(C)N1 (stereo not drawn) [Compound I-466] | > 80
30 | CC1CC(NC(=O)c2ccc(Oc3ccccc3C#N)c(Cl)c2)CC(C)N1 (stereo not drawn) [Compound I-467] | 20 to 80
31 | CC1(C)CC(NC(=O)N2CCC(c3ccccc3)C2)CC(C)(C)N1 (stereo not drawn) [Compound I-470] | > 80
32 | COc1cc(C(=O)NC2CC(C)(C)NC(C)(C)C2)cc2c1OCCO2 [Compound I-471] | > 80
33 | CC1CC(NC(=O)c2ccc(Oc3cccc(-c4ccnnc4)c3C#N)c(Cl)c2)CC(C)N1 (stereo not drawn) [Compound I-472] | < 5
34 | N#Cc1c(Oc2ccc(C(=O)NC3CCN(CCO)CC3)cc2Cl)cccc1-c1ccnnc1 [Compound I-474] | 20 to 80
35 | N#CCN1CCC(NC(=O)c2ccc(Oc3cccc(-c4ccnnc4)c3C#N)c(Cl)c2)CC1 [Compound I-475] | > 80
36 | CC1(C)CC(NC(=O)c2ccc(Oc3cccc(-c4ccnnc4)c3C#N)c(Cl)c2)CC(c2ccccc2)N1 (stereo not drawn) [Compound I-477] | < 5
37 | CC1CC(NC(=O)c2ccc(Oc3cccc(-c4ccnnc4)c3C#N)c(Cl)c2)CC(C)(C)N1 (stereo not drawn) [Compound I-478] | < 5
38 | CC1(C)CC(CC(=O)O)(NC(=O)c2ccc(Oc3cccc(-c4ccnnc4)c3C#N)c(Cl)c2)CC(C)(C)N1 [Compound I-482] | 20 to 80
39 | CC(c1ccccc1C#N)N1CCN(C(=O)NC2CC(C)(C)NC(C)(C)C2)CC1=O (stereo not drawn) [Compound I-484] | > 80
40 | N#CCCN1CCC(NC(=O)c2ccc(Oc3cccc(-c4ccnnc4)c3C#N)c(Cl)c2)CC1 [Compound I-485] | 20 to 80
41 | N#Cc1c(Oc2ccc(C(=O)NC3CCN(CCN)CC3)cc2Cl)cccc1-c1ccnnc1 [Compound I-486] | 5 to 20
42 | Cc1nnc2n1-c1ccccc1C(c1ccc(C(=O)NC3CC(C)(C)NC(C)(C)C3)cc1)=NC2 [Compound I-488] | > 80

Results, then the compound that gave them:

Row | IC50 [µM] | Structure (SMILES)
43 | 5 to 20 | CC1(C)CC(NC(=O)c2ccc(Oc3cccc(C(N)=O)c3C#N)c(Cl)c2)CC(C)(C)N1 [Compound I-394]
44 | < 5 | CC(O)c1cccc(Oc2ccc(C(=O)NC3CC(C)(C)NC(C)(C)C3)cc2Cl)c1Br (stereo not drawn) [Compound I-399]
45 | 5 to 20 | CC(O)c1cccc(Oc2ccc(C(=O)NC3CC(C)(C)NC(C)(C)C3)cc2Cl)c1-c1ccncc1 (stereo not drawn) [Compound I-400]
46 | > 80 | CC1(C)CC(NC(=O)c2ccc(OC3CCNC3)c(Cl)c2)CC(C)(C)N1 (stereo not drawn) [Compound I-411]
47 | 20 to 80 | CC1(C)CC(NC(=O)c2ccc(Oc3ccccc3C#N)c(Cl)c2)C(F)(F)C(C)(C)N1 (stereo not drawn) [Compound I-418]
48 | < 5 | COC(C)c1cccc(Oc2ccc(C(=O)NC3CC(C)(C)NC(C)(C)C3)cc2Cl)c1C#N (stereo not drawn) [Compound I-420]
49 | > 80 | CC1(C)CC(NC(=O)c2ccc(OC(C#N)c3ccccc3)c(Cl)c2)CC(C)(C)N1 (stereo not drawn) [Compound I-421]
50 | 20 to 80 | CC(C)NCc1cccc(Oc2ccc(C(=O)NC3CC(C)(C)NC(C)(C)C3)cc2Cl)c1 [Compound I-422]
51 | > 80 | CNCc1cccc(Oc2ccc(C(=O)NC3CC(C)(C)NC(C)(C)C3)cc2Cl)c1 [Compound I-425]
52 | < 5 | CC(=O)NCc1cccc(Oc2ccc(C(=O)NC3CC(C)(C)NC(C)(C)C3)cc2Cl)c1 [Compound I-430]
53 | > 80 | CC1(C)CC(NC(=O)c2ccc(C(O)c3ccccc3)cc2)CC(C)(C)N1 (stereo not drawn) [Compound I-432]
54 | > 80 | CC1(C)CC(NC(=O)c2ccc(Oc3ccccc3C#N)c(Cl)c2)CC(C)(C)C1 [Compound I-433]
55 | 20 to 80 | CC1(C)CC(NC(=O)c2ccc(Oc3ccccc3C#N)c(Cl)c2)C(F)C(C)(C)N1 (stereo not drawn) [Compound I-434]
56 | 5 to 20 | CNC(C)c1cccc(Oc2ccc(C(=O)NC3CC(C)(C)NC(C)(C)C3)cc2Cl)c1 (stereo not drawn) [Compound I-443]
57 | < 5 | CC1(C)CC(NC(=O)c2ccc(Oc3cccc(CC#N)c3-c3cncnc3)c(Cl)c2)CC(C)(C)N1 [Compound I-444]
58 | < 5 | CC1(C)CC(NC(=O)c2ccc(Oc3cccc(-c4ncccn4)c3C#N)c(Cl)c2)CC(C)(C)N1 [Compound I-445]
59 | 5 to 20 | CC1(C)CC(NC(=O)c2ccc(Oc3cccc(CN4CCCCC4=O)c3)c(Cl)c2)CC(C)(C)N1 [Compound I-446]

Row | IC50 [µM] | Structure (SMILES)
60 | 5 to 20 | CC1(C)CC(NC(=O)c2ccc(Oc3cccc(CN4CCCC4=O)c3)c(Cl)c2)CC(C)(C)N1 [Compound I-447]
61 | < 5 | CC1(C)CC(NC(=O)c2ccc(Oc3cccc(CC#N)c3)c(Cl)c2)CC(C)(C)N1 [Compound I-451]
62 | < 5 | COCc1cccc(Oc2ccc(C(=O)NC3CC(C)(C)NC(C)(C)C3)cc2Cl)c1C#N [Compound I-453]
63 | 5 to 20 | CC(O)c1ccccc1Oc1ccc(C(=O)NC2CC(C)(C)NC(C)(C)C2)cc1Cl (stereo not drawn) [Compound I-455]
64 | > 80 | CC1(C)CC(NC(=O)c2ccc(O[C@H]3CCNC3=O)c(Cl)c2)CC(C)(C)N1 [Compound I-457]
65 | < 5 | CNC(=O)Cc1cccc(Oc2ccc(C(=O)NC3CC(C)(C)NC(C)(C)C3)cc2Cl)c1C#N [Compound I-458]
66 | < 5 | CC1(C)CC(NC(=O)c2ccc(Oc3ccccc3C#N)c(Cl)c2)CC(C)(C)N1CCO [Compound I-459]
67 | 5 to 20 | CC1CC(NC(=O)c2ccc(Oc3ccccc3C#N)c(Cl)c2)CC(C)(C)N1 (stereo not drawn) [Compound I-461]
68 | 20 to 80 | CC1(C)CC(NC(=O)c2ccc(Oc3cccc(C(C)(C)C#N)c3)c(Cl)c2)CC(C)(C)N1 [Compound I-462]
69 | < 5 | Cc1noc(C)c1-c1cccc(Oc2ccc(C(=O)NC3CC(C)(C)NC(C)(C)C3)cc2Cl)c1C#N [Compound I-463]
70 | > 80 | CN(C)C(=O)Cc1cccc(Oc2ccc(C(=O)NC3CC(C)(C)NC(C)(C)C3)cc2Cl)c1C#N [Compound I-464]
71 | < 5 | CC1(C)CC(NC(=O)c2ccc(Oc3cccc(CC(N)=O)c3C#N)c(Cl)c2)CC(C)(C)N1 [Compound I-469]
72 | < 5 | Cn1cc(-c2cccc(Oc3ccc(C(=O)NC4CC(C)(C)NC(C)(C)C4)cc3Cl)c2C#N)ccc1=O [Compound I-476]
73 | 20 to 80 | CC(C#N)c1cccc(Oc2ccc(C(=O)NC3CC(C)(C)NC(C)(C)C3)cc2Cl)c1 (stereo not drawn) [Compound I-479]
74 | > 80 | CC1(C)CC(NC(C(=O)O)c2ccc(Oc3ccccc3C#N)c(Cl)c2)CC(C)(C)N1 (stereo not drawn) [Compound I-483]
75 | < 5 | CC1(C)CC(NC(=O)c2ccc(Oc3cccc(OCC(N)=O)c3C#N)c(Cl)c2)CC(C)(C)N1 [Compound I-487]
